From patent publication US8268747B2, “Safening penoxsulam herbicide injury in water-seeded, direct-seeded and transplanted paddy rice” (Dow AgroSciences, LLC., priority 2009, dated 2012)

How the values were obtained:
[1] = test system: Oryza sativa 'M205' (rice); conditions: in vivo
Experimental: (§1) Evaluation of Postemergence Herbicidal Safening in Water-Seeded Rice
(§2) Pre-germinated rice was applied directly into a flooded rice paddy. The rice paddy was prepared as per normal cultural practices, by applying appropriate fertilizers, working and leveling the ground before flooding, with water flooded across the entire field to a depth of 1 to 5 inches prior to seeding with the pre-germinated rice seed.
(§3) Treatments consisted of penoxsulam and clomazone applied alone and in combination directly into the flooded rice paddy as granular formulated treatments. These treatments could also be applied as liquid applications directly into the water. Clomazone was applied the day of rice seeding, at 13 days after rice seeding, and in combination with penoxsulam at 13 days after rice seeding. Penoxsulam was applied alone and in combination with clomazone at 13 days after rice seeding.
(§4) Colby's equation was used to determine the herbicidal effects expected from the mixtures (Colby, S. R. 1967. Calculation of the synergistic and antagonistic response of herbicide combinations. Weeds 15:20-22.).
(§5) The following equation was used to calculate the expected activity of mixtures containing two active ingredients, A and B: Expected=A+B−(A×B/100)
(§6) A=observed efficacy of active ingredient A at the same concentration as used in the mixture.
(§7) B=observed efficacy of active ingredient B at the same concentration as used in the mixture.

[2] = test system: Echinochloa oryzoides (watergrass); experiment: % visual weed control in water-seeded rice, ECHOR; type: in vivo; conditions: 13 days after seeding, 27 days after treatment
Experimental: as §2, §3, §4, §5, §6, §7

[3] = test system: Cyperus difformis (smallflower umbrella sedge); experiment: % visual weed control in water-seeded rice, CYPDI; type: in vivo; conditions: 13 days after seeding, 27 days after treatment
Experimental: as §2, §3, §4, §5, §6, §7

[4] = test system: Leptochloa fascicularis (sprangletop); experiment: % visual weed control in water-seeded rice, LEFFA; type: in vivo; conditions: 13 days after seeding, 27 days after treatment
Experimental: as §2, §3, §4, §5, §6, §7

[5] = test system: Oryza sativa 'M205' (rice); experiment: Rice % stand reduction, postemergence safening in water-seeded rice
Experimental: as §1, §2, §3, §4, §5, §6, §7

## CC1(C)CON(Cc2ccccc2Cl)C1=O [Clomazone, 2-[(2-chlorophenyl)methyl]-4,4-dimethyl-3-isoxazolidinone]
[1]
  visual injury to rice (text summary of Table 1): 0-3%
[2]; clomazone 224 g ai/ha alone
  % Weed Control Ratings ECHOR (1) Obs: 93%
[2]; clomazone 336 g ai/ha alone
  % Weed Control Ratings ECHOR (1) Obs: 96%
[2]; clomazone 448 g ai/ha alone
  % Weed Control Ratings ECHOR (1) Obs: 97%
[3]; clomazone 224 g ai/ha alone
  % Weed Control Ratings CYPDI (3) Obs: 73%
[3]; clomazone 336 g ai/ha alone
  % Weed Control Ratings CYPDI (3) Obs: 88%
[3]; clomazone 448 g ai/ha alone
  % Weed Control Ratings CYPDI (3) Obs: 87%
[4]; clomazone 224 g ai/ha alone
  % Weed Control Ratings LEFFA (2) Obs: 98%
[4]; clomazone 336 g ai/ha alone
  % Weed Control Ratings LEFFA (2) Obs: 99%
[4]; clomazone 448 g ai/ha alone
  % Weed Control Ratings LEFFA (2) Obs: 99%
[5]; clomazone alone
  effect on the rice stand (text summary of Table 2): negligible effect
[5]; in vivo
  Rice % Stand Reduction Ratings ORYSA (3) Exp: 3%
  Rice % Stand Reduction Ratings ORYSA (3) Obs: 3%

## COc1cnc(OC)n2nc(NS(=O)(=O)c3c(OCC(F)F)cccc3C(F)(F)F)nc12 [Penoxsulam, 2-(2,2-difluoroethoxy)-N-(5,8-dimethoxy[1,2,4]triazolo[1,5-c]pyrimidin-2-yl)-6-(trifluoromethyl)benzenesulfonamide]
[1]
  Rice % Visual Injury Ratings ORYSA (1) Obs: 12%
  Rice % Visual Injury Ratings ORYSA (2) Obs: 9%
  Rice % Visual Injury Ratings ORYSA (3) Obs: 5%
  injury to rice (text summary of Table 1): slight injury
[2]; penoxsulam 40 g ai/ha alone
  % Weed Control Ratings ECHOR (1) Obs: 98%
[3]; penoxsulam 40 g ai/ha alone
  % Weed Control Ratings CYPDI (3) Obs: 99%
[4]; penoxsulam 40 g ai/ha alone
  % Weed Control Ratings LEFFA (2) Obs: 74%
[5]; in vivo
  Rice % Stand Reduction Ratings ORYSA (1) Exp: 27%
  Rice % Stand Reduction Ratings ORYSA (1) Obs: 27%
  Rice % Stand Reduction Ratings ORYSA (2) Exp: 33%
  Rice % Stand Reduction Ratings ORYSA (2) Obs: 33%
  Rice % Stand Reduction Ratings ORYSA (3) Exp: 33%
  Rice % Stand Reduction Ratings ORYSA (3) Obs: 33%
  impact on the rice stand (text summary of Table 2): slight negative impact
